According to publication PMC4571851, “Arginine-Ornithine Antiporter ArcD Controls Arginine Metabolism and Interspecies Biofilm Development of Streptococcus gordonii” (The Journal of Biological Chemistry, 2015):

Target: T1, ArcD (arginine-ornithine antiporter) (Streptococcus gordonii, UniProt A8AYK8)
T1 construct: native full-length membrane transporter in intact wild-type S. gordonii cells; deletion mutant and complemented strain as controls
Assay: inhibition of [3H]arginine uptake into intact wild-type cells
Type: cell-based
Settings: whole cells in PBS, 20 s, 50 μM labelled arginine, unlabelled ornithine at 100-fold excess

T1 sequence (A8AYK8 entry or part of it): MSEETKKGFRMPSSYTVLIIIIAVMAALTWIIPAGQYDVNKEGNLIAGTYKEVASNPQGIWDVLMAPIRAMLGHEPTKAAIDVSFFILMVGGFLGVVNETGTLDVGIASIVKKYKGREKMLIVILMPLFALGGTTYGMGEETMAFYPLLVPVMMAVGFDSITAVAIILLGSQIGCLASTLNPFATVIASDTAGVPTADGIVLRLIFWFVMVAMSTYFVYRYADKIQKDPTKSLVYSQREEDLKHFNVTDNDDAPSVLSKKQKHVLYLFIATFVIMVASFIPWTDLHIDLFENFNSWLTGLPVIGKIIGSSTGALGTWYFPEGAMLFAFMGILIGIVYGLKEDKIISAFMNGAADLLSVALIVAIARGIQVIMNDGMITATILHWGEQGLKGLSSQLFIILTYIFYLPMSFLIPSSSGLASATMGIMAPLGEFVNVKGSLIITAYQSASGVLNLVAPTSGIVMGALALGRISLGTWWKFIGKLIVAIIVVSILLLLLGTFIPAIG

NCCC[C@H](N)C(=O)O [Ornithine]
% inhibition at 100-fold excess: Ornithine also had a moderate effect on the inhibition of arginine uptake
